# Earlier results, collected in US10206391B2, “Strobilurin formulations” (priority 2011, dated 2019).
# Like-named read-outs stand apart in the source and are kept apart here.
# Columns and labels:
# [1] = not given; remark: listed apart in the source
# [2] = not given; remark: listed apart in the source
# [3] = not given; remark: listed apart in the source
smiles,measurement,setting,value
"CNC(=O)/C(=N/OC)c1ccccc1COc1cc(C)ccc1C [Dimoxystrobin, (E)-2-(methoxyimino)-N-methyl-2-[α-(2,5-xylyloxy)-o-tolyl]acetamide]",DT50 for aqueous photolysis,"water, pH 7","DT50 for aqueous photolysis 30 days, pH7"
same,Time stable in aqueous solution,"[1]; pH 4-9, 50° C.","Stable >30 d in aqueous solution at pH 4-9, 50 °C"
same,Solubility in DMF,[2]; 20° C.,200 to 250 mg/mL
same,Solubility in acetone,[2]; 20° C.,67 to 80 mg/mL
same,Solubility in acetonitrile,[2]; 20° C.,50 to 57 mg/mL
same,Solubility in dichloromethane,[2]; 20° C.,> 250 mg/mL
same,Solubility in ethyl acetate,[2]; 20° C.,33 to 40 mg/mL
same,Solubility in isopropanol,[2]; 20° C.,"isopropanol, n-heptane, n-octanol and olive oil all <10 g/l"
same,Solubility in methanol,[2]; 20° C.,20 to 25 mg/mL
same,Solubility in n-heptane,[2]; 20° C.,"isopropanol, n-heptane, n-octanol and olive oil all <10 g/l"
same,Solubility in n-octanol (octanol),[2]; 20° C.,"isopropanol, n-heptane, n-octanol and olive oil all <10 g/l"
same,Solubility in olive oil,[2]; 20° C.,"isopropanol, n-heptane, n-octanol and olive oil all <10 g/l"
same,Solubility in toluene,[2]; 20° C.,20 to 25 mg/mL
same,Solubility in water,"[2]; pH 5.7, 20° C.",0.0043 mg/mL
same,Solubility in water,"[2]; pH 8.0, 20° C.",0.0035 mg/mL
same,KOW logP,[3]; pH 6.5,logP = 3.59
same,Metabolic stability in plants and xylem systemicity (in words),plants; plant tissues,metabolically sufficiently stable in plants and show a pronounced xylem systemicity
"CC1(c2ccc(Oc3ccccc3)cc2)OC(=O)N(Nc2ccccc2)C1=O (centres unmarked) [Famoxadone, 3-anilino-5-methyl-5-(4-phenoxyphenyl)-1,3-oxazolidine-2,4-dione]",DT50 for aqueous photolysis,pH 5,4.6 days
same,DT50 for aqueous photolysis,"water, pH 7",1.9 days
same,DT50 in water with light,"[1]; pH 5, 25° C.","4.6 d (pH 5, 25° C.)."
same,DT50 in water with no light,"[1]; pH 5, 25° C.",41 days
same,DT50 in water with no light,"[1]; pH 7, 25° C.",2 days
same,DT50 in water with no light,"[1]; pH 9, 25° C.","0.0646 d (pH 9) (25° C.); in water with light, DT50"
same,KOW logP,[3]; pH 7,logP = 4.65
"CO/N=C(/C1=NOCCO1)c1ccccc1Oc1ncnc(Oc2ccccc2Cl)c1F [Fluxastrobin, (E)-{2-[6-(2-chlorophenoxy)-5-fluoropyrimidin-4-yloxy]phenyl}(5,6-dihydro-1,4,2-dioxazin-3-yl)methanone O-methyloxime]",Photolytic stability DT50,"sterile aqueous phosphate buffer, pH 7",DT50 3.8-4.1 days in sterile aqueous phosphate
same,Photolytic stability DT50,"under solar summer conditions, Phoenix AZ, USA in June","buffer, pH 7; 19- 22 days under solar summer"
same,Hydrolysis DT50,"[1]; pH 4, 7 and 9, 50° C.","Hydrolysis DT50 >1 y (pH 4, 7 and 9, 50° C.);"
same,Solubility in dichloromethane,[2]; 20° C.,> 250 mg/mL
same,Solubility in isopropanol,[2]; 20° C.,6.7 mg/mL
same,Solubility in n-heptane,[2]; 20° C.,0.04 mg/mL
same,Solubility in xylene,[2]; 20° C.,38.1 mg/mL
same,Solubility in water,"[2]; pH 7, 20° C.",0.00229 mg/mL
same,Solubility in water,"[2]; unbuffered, 20° C.",0.00256 mg/mL
same,KOW logP,[3]; 20° C.,logP = 2.86
same,Metabolic stability in plants and xylem systemicity (in words),plants; plant tissues,metabolically sufficiently stable in plants and show a pronounced xylem systemicity
"CO/N=C(/C(=O)OC)c1ccccc1COc1ccccc1C [Kresoxim-methyl, methyl(E)-methoxyimino[2-(o-tolyloxymethyl)phenyl]acetate]",DT50 for aqueous photolysis,"water, pH 7","Photolysis DT50 18.2 days, pH7"
same,Stability (in words),"[1]; pH 5, text wrapped over r19-r20 reads 'relatively stable at pH 5'",stable at pH 5.
same,Hydrolysis DT50,[1]; pH 7,816 h
same,Hydrolysis DT50,[1]; pH 9,7 h
"CNC(=O)/C(=N/OC)c1ccccc1CO/N=C(C)/C(=N/OC)C(/C)=N/OC [Orysastrobin, 2[(E)-methoxyimino]-2-[(3E,6E)-2-{5-[(E)-methoxyimino]-4,6-dimethyl-2,8-dioxa-3,7-diazanona-3,6-dienyl}phenyl]-N-methylacetamide]",DT50 for aqueous photolysis,"water, pH 7","Photolysis DT50 0.8 days, pH7"
same,Solubility in water,[2]; 20° C.,water 80.6 mg/l (20° C.).
same,KOW logP,[3]; 20° C.,logP = 2.36
"CO/C=C(/C(=O)OC)c1ccccc1COc1cccc(C(F)(F)F)n1 [Picoxystrobin, methyl(E)-3-methoxy-2-[2-(6-trifluoromethyl-2-pyridyloxymethyl)phenyl]acrylate]",DT50 for aqueous photolysis,"water, pH 7","DT50 for aqueous photolysis 21 days, pH7"
same,DT50,"[1]; pH 9, 50° C.",~15 days
same,Metabolic stability in plants and xylem systemicity (in words),plants; in vivo,metabolically sufficiently stable in plants and show a pronounced xylem systemicity
"COC(=O)N(OC)c1ccccc1COc1ccn(-c2ccc(Cl)cc2)n1 [Pyraclostrobin, methyl N-{2-[1-(4-chlorophenyl)pyrazol-3-yloxymethyl]phenyl}(N-methoxy)carbamate]",DT50 for aqueous photolysis,"water, pH 7","Photolysis DT50 in water 1.7 days, pH7"
same,Time stable,"[1]; pH 5-7, 25° C.","Stable >30 d (pH 5-7, 25° C.)."
same,Solubility in acetone,[2]; 20° C.,"acetonitrile, dichloromethane and toluene >500 (all g/l"
same,Solubility in acetonitrile,[2]; 20° C.,"acetonitrile, dichloromethane and toluene >500 (all g/l"
same,Solubility in dichloromethane,[2]; 20° C.,"acetonitrile, dichloromethane and toluene >500 (all g/l"
same,Solubility in ethyl acetate,[2]; 20° C.,"acetonitrile, dichloromethane and toluene >500 (all g/l"
same,Solubility in isopropanol,[2]; 20° C.,30.0 mg/mL
same,Solubility in methanol,[2]; 20° C.,"methanol 100.8, acetone, ethyl acetate, g/l"
same,Solubility in n-heptane,[2]; 20° C.,3.7 mg/mL
same,Solubility in n-octanol (octanol),[2]; 20° C.,24.2 mg/mL
same,Solubility in olive oil,[2]; 20° C.,28.0 mg/mL
same,Solubility in toluene,[2]; 20° C.,"acetonitrile, dichloromethane and toluene >500 (all g/l"
"CO/N=C(/C(=O)OC)c1ccccc1CO/N=C(\C)c1cccc(C(F)(F)F)c1 [Trifloxystrobin, methyl(E)-methoxyimino-{(E)-α-[1-(α,α,α-trifluoro-m-tolyl)ethylideneaminooxy]-o-tolyl}acetate]",DT50 for aqueous photolysis,pH 5,1.1 days
same,DT50 for aqueous photolysis,"water, pH 7",2.7 days
same,Stability to hydrolysis (in words),[1]; pH 5,stable
same,Hydrolysis DT50,"[1]; pH 7, 20° C.",11.4 w
same,Hydrolysis DT50,"[1]; pH 9, 20° C.",27.1 h
